Test results: patent US4013449A, “Method of controlling weed growth in a paddy field” (priority 1974, dated 1977)
Entries after “also recorded” stand apart in the source; their conditions may differ.

Key:
broadleaf weeds [1] = assay: Example 2: mechanical transplanting using young seedlings, poured into flooded water, herbicidal effect on broadleaf weeds; assay type: in vivo; details: 20 days; also: key: 5: complete control; 4: excellent effect; 3: large effect; 2: fair effect; 1: small effect; 0: no effect
Method: (§1) The tests were conducted by using the compositions of Example 1 in the paddy field of Ishigakijima, Okinawa-Ken, Japan.
(§2) 1. Plot size: Two replications each 1 m^2 per division.
(§3) 2. Culturing method: Mechanical transplanting using young seedlings
(§4) 3. Rice variety: Nihonbare
(§5) 4. Transplanting: Apr. 8, 1974
(§6) 2.3 - 3 leaf stage of rice at the transplanting;
(§7) 5. Depth of water: 3 - 5 cm
(§8) A. first treatment: Apr. 19, 1974
(§9) (16 days after transplanting)
(§10) 2 - 2.5 leaf stage of barnyard grass
(§11) B. second treatment: Apr. 23, 1974
(§12) (20 days after transplanting)
(§13) 3 - 3.5 leaf stage of barnyard grass.
(§14) Each composition was diluted with 50 cc of water and the solution was poured in the rows by using a watering pot.
Monochoria vaginalis (Burm fil) Presel;
Rotala indica (Willd) Koehne;
Scirpus juncoides Roxb; and
(§15) After 20 days from the treatment (the first treatment and the second treatment), the herbicidal effects and the condition of the rice were observed.

[2] = Experiment 3: decomposition of DCPA in soil; assay type: physicochemical; details: Alluvium loam soil, DCPA 100 g/are; for inhibition of the decomposition of DCPA in soil: NAC 3.3 g/are
Method: The method of this invention is treatment in flooded water. Accordingly, transfer of the active ingredients into the soil of the paddy field is unavoidable. The decompositions of the active ingredients in the paddy soil were measured.
Soil: Alluvium loam soil
The active ingredients were uniformly mixed in a 5 mm
Analysis: The concentrations of DCPA were
measured by gas chromatography in […]

broadleaf weeds [3] = assay: Example 1: usual transplanting culture, paddy field, poured into flooded water, herbicidal effect on broadleaf weeds; assay type: in vivo; details: 3 weeks; also: key: 5: complete control; 4: excellent effect; 3: large effect; 2: fair effect; 1: small effect; 0: no effect
From the text: (§16) DCPA and β-NAC were separately crushed into fine powders by a jetmizer. The crushed DCPA and β-NAC were mixed in ratios of 80 : 1; 40 : 1; 20 : 1 and 10 : 1 together with a dispersing agent (Sorpol 5039 manufactured by Toho Chemical Co. and Rapizol BB-74 manufactured by Nippon Fat & Oil Co.) to form a wettable powder. The compositions were applied under the following conditions in a paddy field of Ishigakijima, Okinawa-Ken, Japan.
(§17) 1. Plot size: Two replications, each 1 m^2 per division
(§18) 2. Culturing method: Usual transplanting
(§19) 3. Rice variety: Taichu 65
(§20) 5 - 6 leaf stage of rice plants at the transplanting;
(§21) a. Treating time Mar. 16, 1974 (17 days after transplanting)
as §10
(§22) Each composition was diluted with 50 cc of water and the solution was poured in the rows by using a watering pot
Monochoria vaginalis (Burm fil) Presl;
Dopatrium junceum (Roxb) Hamilt;
Rotala indica (Willd) koehne;
Eleocharis acicularis Roem et Schult;
(§23) After 3 weeks from the treatment, the herbicidal effect and the phytotoxicity were observed.

barnyard grass [4] = assay: Example 2: mechanical transplanting using young seedlings, poured into flooded water, herbicidal effect on barnyard grass; assay type: in vivo, Echinochloa crusgalli; details: for Herbicidal Effect, BG: 20 days; as to Herbicidal Effect, BG: key: 5: complete control; 4: excellent effect; 3: large effect; 2: fair effect; 1: small effect; 0: no effect
Method: as §1, §2, §3, §4, §5, §6, §7, §8, §9, §10, §11, §12, §13, §14
(§24) Barnyard grass (Echinochloa crusgalli);
as §15

rice plant [5] = assay: Reference Experiment 2: foliage treatment, phytotoxicity of rice plant; assay type: in vivo; details: DCPA 1000 ppm alone
From the text: In unglazed pots having diameters of 9 cm, diluvium clay loam was filled and rice seeds and barnyard grass seeds were sowed and grown. […] The phytotoxicity of rice and herbicidal effect on barnyard grass were observed 20 days from the treatment.

rice plant [6] = assay: Example 1: usual transplanting culture, paddy field, phytotoxicity to rice plant; assay type: in vivo, Taichu 65; design: key: X: killed; ++++: serious damage; +++: high damage; ++: middle damage; +: low damage; ±: quite low damage; -: no damage; details: 3 weeks
From the text: as §16, §17, §18, §19, §20, §21, §10, §22, §23

barnyard grass [7] = assay: Example 1: usual transplanting culture, paddy field, poured into flooded water, herbicidal effect on barnyard grass; assay type: in vivo, Echinochloa crusgalli; details: for Herbicidal effect, barnyard grass: 3 weeks; for herbicidal effect to barnyard grass and broadleaf weeds: poured into flooded water; as to Herbicidal effect, barnyard grass: key: 5: complete control; 4: excellent effect; 3: large effect; 2: fair effect; 1: small effect; 0: no effect
From the text: as §16, §17, §18, §19, §20, §21, §10, §22, §24, §23

house fly = assay: LD50 to house fly (Table 1); details: addition of piperinyl butoxide
larva of mosquito = assay: LD50 to larva of mosquito (Table 1); details: read-out: LD50 to larva of mosquito
Insecticidal effect = details: in vivo
[8] = A: 2 - 2.5 leaf stage, DCPA 60 g/are, β-NAC none
[9] = B: 3 - 3.5 leaf stage, DCPA 60 g/are, β-NAC none
[10] = A: 2 - 2.5 leaf stage, DCPA none, β-NAC 4.0 g/are
[11] = B: 3 - 3.5 leaf stage, DCPA none, β-NAC 4.0 g/are

CCC(=O)Nc1ccc(Cl)c(Cl)c1 [DCPA, 3,4-dichloropropionanilide, reference compound]
Herbicidal Effect, BLW (broadleaf weeds [1]; [8]): 0 | Herbicidal Effect, BLW (broadleaf weeds [1]; [9]): 0 | minimum residues of DCPA in soil ([2]; α-NAC or β-NAC 3.3 g/are where combined, gas chromatography): 4 days | Herbicidal effect, broadleaf weeds (broadleaf weeds [3]; DCPA 60 g/are, β-NAC none): 0 | Herbicidal Effect, BG (barnyard grass [4]; [8]): 0 | Herbicidal Effect, BG (barnyard grass [4]; [9]): 0 | herbicidal effect (barnyard grass [4]; DCPA 60 g/are, 2 - 2.5 and 3 - 3.5 leaf stage of barnyard grass): no herbicidal effect was found | Phytotoxicity to rice plants (rice plant [5]): not found | Phytotoxicity to rice plant (rice plant [6]; DCPA 60 g/are, β-NAC none): - | Herbicidal effect, barnyard grass (barnyard grass [7]; DCPA 60 g/are, β-NAC none): 0 | herbicidal effect to barnyard grass and broadleaf weeds (barnyard grass [7]; DCPA 60 g/are): no herbicidal effect

CNC(=O)Oc1cccc2ccccc12 [α-NAC, α-naphthyl-N-methyl carbamate]
inhibition of the decomposition of DCPA in soil [2]: inhibit the decomposition of DCPA

CNC(=O)Oc1ccc2ccccc2c1 [β-NAC, β-naphthyl-N-methyl carbamate]
Herbicidal Effect, BLW (broadleaf weeds [1]; [10]): 0 | Herbicidal Effect, BLW (broadleaf weeds [1]; [11]): 0 | inhibition of the decomposition of DCPA in soil [2]: higher effect for inhibiting the decomposition of DCPA | Herbicidal effect, broadleaf weeds (broadleaf weeds [3]; DCPA none, β-NAC 4.0 g/are): 0 | LD50 to house fly (house fly): 12.5 µg/g | LC50 (larva of mosquito): > 10 µg/mL | Herbicidal Effect, BG (barnyard grass [4]; [10]): 0 | Herbicidal Effect, BG (barnyard grass [4]; [11]): 0 | Phytotoxicity to rice plant (rice plant [6]; DCPA none, β-NAC 4.0 g/are): - | Herbicidal effect, barnyard grass (barnyard grass [7]; DCPA none, β-NAC 4.0 g/are): 0 | herbicidal effect to barnyard grass and broadleaf weeds (barnyard grass [7]; β-NAC 4 g/are): no herbicidal effect | insecticidal effect (Insecticidal effect): low insecticidal effect; also recorded: no insecticidal effect
